Measured values published in the supplement of paper PMC10307832.

How the values were obtained:
Assay in all cases: relative viability (nuclei count vs DMSO), 5 days (fraction); higher = more cells survive
[1] = compound: CN[C@@H]1C[C@H]2O[C@@](C)([C@@H]1OC)n1c3ccccc3c3c4c(c5c6ccccc6n2c5c31)C(=O)NC4 [Staurosporine] + CS(=O)(=O)N1CCN(Cc2cc3nc(-c4cccc5[nH]ncc45)nc(N4CCOCC4)c3s2)CC1 [Pictilisib] (partner 1 µM)
Summary of the method: (§1)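 Values are medians from duplicate plates. Each reflects relative viability, defined as the nuclei count of treated wells over that of vehicle wells. Lung cancer cell lines in 1536-well plates were pin-tool dosed one day after seeding with one drug alone or with a fixed anchor-drug dose plus five library-drug doses (not always all listed) in √10 steps, then fixed, stained and imaged at 4× after 5 days.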

Sulindac + Pemetrexed = compound: CC1=C(CC(=O)O)c2cc(F)ccc2/C1=C\c1ccc([S+](C)[O-])cc1 [Sulindac] + Nc1nc2[nH]cc(CCc3ccc(C(=O)N[C@@H](CCC(=O)O)C(=O)O)cc3)c2c(=O)[nH]1 [Pemetrexed] (partner 0.2 µM)
Summary of the method: as §1

Sulindac + OSI-027 = compound: CC1=C(CC(=O)O)c2cc(F)ccc2/C1=C\c1ccc([S+](C)[O-])cc1 [Sulindac] + COc1cccc2cc(-c3nc([C@H]4CC[C@H](C(=O)O)CC4)n4ncnc(N)c34)[nH]c12 [OSI-027] (partner 0.5 µM)
Summary of the method: as §1

Sulindac + Vorinostat = compound: CC1=C(CC(=O)O)c2cc(F)ccc2/C1=C\c1ccc([S+](C)[O-])cc1 [Sulindac] + O=C(CCCCCCC(=O)Nc1ccccc1)NO [Vorinostat] (partner 1 µM)
Summary of the method: as §1

Cell Line	relative viability ([1]; first compound 0.005 µM)	relative viability ([1]; first compound 0.01581 µM)	relative viability ([1]; first compound 0.05 µM)	relative viability ([1]; first compound 0.1581 µM)	relative viability ([1]; first compound 0.5 µM)	relative viability (Sulindac + Pemetrexed; first compound 0.08 µM)	relative viability (Sulindac + Pemetrexed; first compound 0.253 µM)	relative viability (Sulindac + Pemetrexed; first compound 0.8 µM)	relative viability (Sulindac + Pemetrexed; first compound 2.53 µM)	relative viability (Sulindac + Pemetrexed; first compound 8 µM)	relative viability (Sulindac + OSI-027; first compound 0.08 µM)	relative viability (Sulindac + OSI-027; first compound 0.253 µM)	relative viability (Sulindac + OSI-027; first compound 0.8 µM)	relative viability (Sulindac + OSI-027; first compound 2.53 µM)	relative viability (Sulindac + OSI-027; first compound 8 µM)	relative viability (Sulindac + Vorinostat; first compound 0.08 µM)	relative viability (Sulindac + Vorinostat; first compound 0.253 µM)	relative viability (Sulindac + Vorinostat; first compound 0.8 µM)	relative viability (Sulindac + Vorinostat; first compound 2.53 µM)	relative viability (Sulindac + Vorinostat; first compound 8 µM)
LCLC-97TM1	0.197	0.0972	0.152	0.119	0.153	0.205	0.178	0.147	0.177	0.198	0.629	0.626	0.294	0.426	0.589	1.01	0.86	0.453	0.729	0.94
LCLC-103H	0.495	0.211	0.274	0.193	0.158	0.458	0.45	0.505	0.44	0.491	0.558	0.499	0.388	0.496	0.555	0.872	0.773	0.729	0.72	0.799
LK-2	0.789	0.812	0.466	0.199	0.0791	0.315	0.29	0.228	0.221	0.293	0.186	0.209	0.201	0.17	0.21	0.292	0.258	0.234	0.289	0.228
LOU-NH91	0.521	0.38	0.338	0.277	0.279	0.305	0.358	0.413	0.423	0.374	0.681	0.714	0.808	0.705	0.73	0.965	0.97	0.716	0.952	1.1
LU99A	0.187	0.158	0.186	0.122	0.114	0.181	0.159	0.214	0.193	0.179	0.306	0.289	0.284	0.299	0.306	0.499	0.465	0.454	0.428	0.551
LXF-289	0.48		0.111	0.0648	0.0482	0.99	0.876	0.806	0.9	0.942	0.829	0.863	0.749	0.753	0.844	0.867	0.797	0.636	0.83	0.797
NCI-H23	0.319	0.114		0.162	0.113	0.768	0.683	0.237	0.7	0.692	0.678		0.602	0.583	0.72	0.577	0.684	0.607	0.38	0.702
NCI-H322M	0.683	0.384	0.312	0.309	0.252	0.646	0.642	0.597	0.552	0.666	0.6	0.534	0.442	0.557	0.602	0.859	0.914	0.882	0.916	0.863
NCI-H358	0.317	0.261	0.162	0.141	0.139	0.183	0.157	0.17	0.151	0.182	0.941	0.891	0.657	0.727	0.891	0.842	0.722	0.601	0.669	0.897
NCI-H441	0.426	0.152	0.178	0.155	0.12	0.251	0.255	0.286	0.244	0.253	0.627	0.597	0.416	0.679	0.759	1.02	0.936	0.599	0.782	0.981
NCI-H460	0.316		0.228	0.0535	0.0424	0.0577	0.0612	0.0559	0.0599	0.0635	1.5	0.811	0.566	0.688	0.77	1.35	0.614	0.623	0.994	0.795
NCI-H520	0.484	0.206	0.39	0.178	0.159	0.893	0.613	0.488	0.642	0.813	0.266	0.266		0.232	0.307	0.897	0.914	0.686	0.682	0.778
NCI-H596	0.407	0.222	0.198	0.129	0.105	0.441	0.433		0.445	0.544	0.798	0.761	0.76	0.77	0.772	0.589	0.606		0.578	0.612
NCI-H647	0.292	0.125	0.148	0.118	0.0831	0.212	0.165	0.169	0.182	0.208	0.63	0.947	0.487	0.677	0.683	0.604	0.952	0.409	0.628	0.549
NCI-H650	0.416	0.297	0.344	0.24	0.233	1	0.88	0.845	0.932	1.09	0.506	0.523	0.523	0.545	0.566	0.506	0.429	0.334	0.379	0.579
NCI-H661	0.345	0.265	0.277	0.245	0.271	0.953	0.931	0.869	0.922	0.981	0.735	0.838	0.622	0.711	0.797	0.936	0.812	0.693	0.814	0.852
